Data taken from patent publication US20180318199A1, “Pharmaceutical Composition Having Anti-Aging Properties against High-Glucose” (TAIWAN LEADER BIOTECH CORP., priority 2017, published 2018).

Legend:
[1] = test system: HUVECs; experiment: Intracellular ROS (DCFH-DA assay) in HUVECs; assay type: cell-based, human; details: ANM 10 μM + HG 30 mM, 48 h; HG alone 14.3-fold
Experimental: The intracellular ROS level is quantified by utilizing DCFH-DA assay. […] However, treatment of HUVECs with ANM resulted reduced ROS levels (6.1-fold), compared with HUVECs in HG that are not treated with ANM. In addition, in FIG. 9G, western blot analysis is performed to determine the protein expression levels of HO-1 and NQO-1.

[2] = test system: HNDFs; experiment: SA-β-gal senescence assay in HG-induced HNDFs; assay type: cell-based, human; details: 72 h
Experimental: Next, the protective effects of antcins on HG-induced HNDF senescence are examined. In FIG. 2B, cells were incubated with ANA (10 μM), ANH (10 μM) and ANM (10 μM) in the presence of HG (30 mM) for 72 h. Cellular senescence is determined by SA-β-gal activity. […] After cells are co-incubated with HG and antcins (ANA, ANH and ANM) for 72 h, senescence is measured by SA-β-gal assay.
Therefore, in order to examine whether the ROS inhibitory effect may be extended to suppress HG-induced senescence, HG-induced senescenece eliminated by ANM is examined. In FIG. 4B, HNDFs are incubated with ANM (10 μM) or NAC (100 μM) in the presence or absence of HG (30 mM) for 72 h. Cellular senescence is determined by SA-β-gal assay. […] As is shown, cells are co-incubated with HG and ANM or NAC for 72 h.
Senescence-associated β-galactosidase (SA-β-gal) activity is determined in formaldehyde-fixed histochemical staining kit according to the manufacturer's instructions (Cell Signaling Technology, Danvers, Calif.). Briefly, cells are grown in 6-well plates at a density of 5×10^4 cells/well, and incubated with HG or test samples for 48 h (HUVECs) or 72 h (HNDFs). After incubation, cells are stained with SA-β-gal staining solution at pH 6.0 overnight and then the development of blue staining is observed and photographed under a bright-field microscope (Motic Electric Group, Xiamen, P.R. China).

[3] = test system: wild-type C. elegans; experiment: C. elegans lifespan assay; assay type: in vivo, Caenorhabditis elegans
Experimental: It has been well documented that high glucose levels decrease the life span of C. elegans by increasing ROS formation and advance glycation end-product modification of mitochondrial proteins. Therefore, it is further investigated whether ANM has a protective effect against hyperglycemia-induced oxidative stress as well as anti-aging effects. Worms are incubated with high glucose (50 mM) with or without ANM […], and controlled for life span evaluation. In FIG. 8B, effect of ANM on the life span of C. elegans under hyperglycemic condition is examined. Age synchronized L1 larvae are transfected to NGM plates which contain HG (50 mM) with or without ANM (10 μM) and worms are developed to adulthood. The survival rate is scored everyday and is expressed as a percentage of survival. […] Results are expressed as mean±S.E.M of three independent experiments. Statistical significance is set at ^ϕP<0.05 as compared to control vs. HG, *P<0.05 as compared to HG vs. HG+sample and ̂P<0.05 as compared to control vs. samples.
Control worms are treated with 0.01% DMSO. All worms are kept 20° C. to develop adulthood. After 6 days, worms are transferred to plates containing glucose are applicable. Surviving and dead animals are counted daily (starting from the first day of adulthood) until all worms had died. […] Worms suffering from internal hatch (a defect in egg-laying) and those that crawled off the NGM plate are not included in the life-span assay. During the reproductive period, adult worms are transferred to fresh NGM plates every day during the progeny production period and then every other day thereafter. Life span assay result is obtained from three independent assays.

[4] = test system: Nrf2; experiment: ARE luciferase reporter assay in HUVECs; assay type: cell-based, human; details: ANM 10 μM or RES 5 μM + HG 30 mM, 6 h; HG alone 0.5-fold, control 1-fold
Experimental: Cell lysates are mixed with luciferase reagents and quantified using an illuminometer. Relative ARE promoter activity is calculated by dividing the relative luciferase unit (RLU) of treated cells by RLU of untreated cells (NG). Results are expressed as mean±SEM of three independent experiments. Statistical significance is set at ^ϕP<0.05 as compared to NG vs. HG and *P<0.05 as compared to HG vs. samples.
ARE promoter activity is measured using a dual-luciferase reporter assay system (Promega, Madison, Wis.). […] Cells are then transfected with ARE plasmid (Qiagen, Hilden, Germany) using Lipofectamine 2000 (Invitrogen) and incubated for 36 h. […] The cell lysate is prepared and incubated with luciferase agents and the relative luminescence intensity is quantified using a spectrophotometer (Hidex Oy, Turku, Finland).

[5] = test system: p53 and FoxO1; experiment: Western blot of p53 and FoxO1 acetylation in HUVECs; assay type: cell-based, human; details: ANM 10 μM + HG 30 mM
Experimental: Please refer to FIG. 9A˜FIG. 9H, which are views showing HG-induced senescence prevented by ANM in human umbilical vein endothelial cells (HUVECs). As shown in the figures, to further delineate the protective effects of ANM on another cell system, experiments are designed to investigate the protective effect of ANM on HUVECs incubated in media containing either NG or HG alone or with ANM for 48 h. Cell viability is measured by MTT assay. […] Cell viability is determined by MTT assay. Percentage of viable cells are normalized with control cells (NG). […] In addition, in FIG. 9B, cellular senescence is determined by SA-β-gal activity assay. […] In addition, in FIG. 9C and FIG. 9D, total cell lysate is extracted and senescence-associated marker proteins including p16^INK4A, p21^CIP1 total and acetylated p53 and FoxO1 are measured by western blot analysis.
Cells are lysed by either RIPA lysis buffer or nuclear and cytoplasmic extraction reagents (Thermo Fisher Scientific). Protein concentrations are determined by Bio-Rad protein assay reagent (Bio-Rad Laboratories, Hercules, Calif.). […] The blots are detected using VL Chemi-Smart 3000 (Viogene Biotek, Sunnyvale, Calif.) with the enhanced chemiluminescence (ECL) western blotting reagent (Millipore, Billerica, Mass.).

SMILES: C=C(CCC(C)C1CCC2C3=C(C(=O)C(O)C21C)C1(C)CCC(O)C(C)C1CC3)C(C)C(=O)O (centres unmarked) [ANM, antcin M]
- intracellular ROS levels in HUVECs [1]: 6.1 fold
- SA-β-gal positive cells ([2]; 10 μM compound + HG 30 mM, HG alone 9.59-fold (FIG. 2B)): 1.51 fold
- HG-induced senescence (SA-β-gal activity), control siRNA cells (SIRT-1 experiment) ([2]; ANM 10 μM + HG): significantly inhibits
- HG-induced senescence (SA-β-gal), control siRNA cells (Nrf2 experiment) ([2]; ANM 10 μM + HG): significantly inhibits
- HG-induced senescence (SA-β-gal), siNrf2-transfected cells ([2]; ANM 10 μM + HG): significantly prevents
- SA-β-gal positive cells ([2]; ANM 10 μM or NAC 100 μM + HG 30 mM, HG alone 5.72-fold (FIG. 4B)): 1.89 fold
- SA-β-gal activity, SIRT-1 siRNA transfected cells ([2]; ANM 10 μM or RES + HG): remains partially elevated
- life span of C. elegans under normal condition ([3]; ANM 10 μM or RES 438 μM vs control): significantly (P<0.026) prolongs
- life span of C. elegans under hyperglycemic condition ([3]; HG 50 mM with ANM 10 μM vs HG alone): significant (P<0.0001) increase
- relative ARE luciferase activity in HUVECs co-incubated with HG [4]: 4.8 fold
- HG-induced p53 and FoxO1 acetylation in HUVECs [5]: significantly blocks
